The assay deals with CYP2C9 (Homo sapiens, UniProt P11712). In words: IC50 assay, diclofenac 4'-hydroxylation in HLM.

This note sets out measurements from publication PMC5041077, “Metabolic profile and safety of piperlongumine” (Scientific Reports, 2016).

Sequence of CYP2C9 (P11712 whole entry): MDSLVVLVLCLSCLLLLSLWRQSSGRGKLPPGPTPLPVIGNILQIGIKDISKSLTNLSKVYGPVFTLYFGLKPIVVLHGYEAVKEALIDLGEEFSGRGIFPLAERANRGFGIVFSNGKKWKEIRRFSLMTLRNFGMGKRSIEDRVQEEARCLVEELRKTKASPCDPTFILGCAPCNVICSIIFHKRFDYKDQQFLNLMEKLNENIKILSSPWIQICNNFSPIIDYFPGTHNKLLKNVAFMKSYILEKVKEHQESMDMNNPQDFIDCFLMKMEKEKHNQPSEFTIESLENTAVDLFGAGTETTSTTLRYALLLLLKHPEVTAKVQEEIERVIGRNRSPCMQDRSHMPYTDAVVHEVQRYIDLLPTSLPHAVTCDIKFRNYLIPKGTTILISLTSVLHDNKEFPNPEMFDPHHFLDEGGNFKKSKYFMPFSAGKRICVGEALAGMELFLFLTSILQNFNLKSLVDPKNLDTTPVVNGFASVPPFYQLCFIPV

The term IC50 denotes the concentration at which inhibition is half-maximal. The molecule `COc1cc(/C=C/C(=O)N2CCC=CC2=O)cc(OC)c1OC` [PPL, Piperlongumine] yielded an IC50 above 100 µM.
